Laboratory results from PMC7249060, “The Antiproliferative Effects of Flavonoid MAO Inhibitors on Prostate Cancer Cells” (Molecules, 2020).

Assays:
[1] = system: LNCaP cells; assay: Viability screen assay, resazurin, 24 h; type: cell-based, human; conditions: 50 μM, 90% viability as margin of cytotoxicity
Procedure: We examined the cytotoxic effects of all 20 synthesized KKRs on the three human PCa cell lines LNCaP, DU145, and PC3, after a 24 h exposure period. Non-toxic TAX was used for comparison. Briefly, cultured cells were seeded in black transparent bottom 96-well microplates at 50,000 cells/175-µL/well in experimental media (RPMI1640 for LNCaP, EMEM for DU145, and DMEM/F12K for PC3), supplied with 5% FBS and 1% P/S. Wells of media without cells were considered blanks and negative controls. The plates were incubated overnight at 37 °C in 5% CO2 to allow cell attachment. For each compound, a working solution of 8X KKR in sterile […] HEPES in HBSS pH buffer of 7.4 was prepared for a final concentration of 50 μM each. The three attached cell types were treated immediately with the related buffer being added to the control wells. A sterile fluorescence-based solution of the resazurin reagent of 0.5 mg/mL in HBSS was prepared. After 24 h, the cells were exposed to 15% v/v of the sterile resazurin reagent, and the plates were re-incubated for 4.5 h to allow redox reaction. All plates were read under 530/590-nm excitation/emission wavelengths using Bio-Tek Synergy HTX Multi-reader as a microplate fluorescence reader.

[2] = target: T1, hMAO-A (Homo sapiens, UniProt P21397); assay: Michaelis–Menten kinetics / mode of inhibition (MAO-Glow, LDS substrate); type: biochemical; conditions: for Alpha parameter (mixed model of enzyme inhibition): GraphPad Prism mixed model; for mode of hMAO-A inhibition: Lineweaver–Burk, alpha analysis; for Vmax of hMAO-A with increasing inhibitor (minimum and maximum average means): inhibitor 0 to IC50 × 4
T1 construct: purchased Sigma-Aldrich Co. (St. Louis, MO, USA)
T1 sequence (P21397 1-527): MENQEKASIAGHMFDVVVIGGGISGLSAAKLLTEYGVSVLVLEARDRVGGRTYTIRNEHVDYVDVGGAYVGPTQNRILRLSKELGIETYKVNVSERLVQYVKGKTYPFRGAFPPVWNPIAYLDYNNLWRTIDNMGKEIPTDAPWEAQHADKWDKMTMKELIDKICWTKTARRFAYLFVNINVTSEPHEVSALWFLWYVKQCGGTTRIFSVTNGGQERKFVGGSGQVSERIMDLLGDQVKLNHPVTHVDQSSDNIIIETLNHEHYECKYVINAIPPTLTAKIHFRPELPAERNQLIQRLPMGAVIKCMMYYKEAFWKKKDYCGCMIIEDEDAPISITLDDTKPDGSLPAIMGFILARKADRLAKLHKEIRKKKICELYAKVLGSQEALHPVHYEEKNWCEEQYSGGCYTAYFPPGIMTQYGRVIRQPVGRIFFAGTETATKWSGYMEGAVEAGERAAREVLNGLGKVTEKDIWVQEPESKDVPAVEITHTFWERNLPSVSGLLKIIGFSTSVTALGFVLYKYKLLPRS
Procedure: The hMAO-A modes of inhibition by KKR21 and KKR11 were investigated using the Michaelis–Menten reaction kinetics and MAO-Glow™ assay. A negative control buffer and seven serially diluted LDS concentrations were prepared from a maximum final of 75 μM. Other negative control buffers and three different concentrations of each KKR were prepared to resemble IC50/4, IC50, and IC50 × 4 final concentrations (final KKR11 of 0.08, 0.31, and 1.24 μM, and final KKR21 of 0.005, 0.019, and 0.076 μM, respectively). Each KKR was mixed with the isozyme in a 2:1 ratio volume for a final concentration of 0.44 U/mL. The reactions were initiated by adding 37.5 μL of the prepared mixture to 12.5 μL LDS substrate in the 96-well plates. Opaque plates were incubated at 37 °C for 60 min. The enzymatic reaction was terminated by adding 50 μL RLDR to the plates and then was re-incubated for 30 min at RT. The generated ALU was read on the Bio-Tek Synergy HTX Multi-Reader.
The Vmax and Km were calculated from the averaged X and Y intercepts of Lineweaver–Burk (LWB) linear regressions that were analyzed from the Michaelis–Menten curve data. Vmax = 1/Y-intercept, Km = −1/X-intercept(2)
Inhibitor-constant (Ki) was calculated from Cheng–Prosuff’s equation Ki (comp) = IC50/(1+[S]/Km)(3)

[3] = competitive model, Ki = IC50/(1 + [S]/Km)

Compound	cytotoxicity / cell viability [1]	Ki ([2]; Cheng–Prosuff's equation)	Alpha parameter (mixed model of enzyme inhibition) [2]	mode of hMAO-A inhibition [2]	Ki [2, 3]	Vmax of hMAO-A with increasing inhibitor (minimum and maximum average means) [2]
O=c1c(O)c(-c2ccccc2)oc2c(Cl)cc(Cl)cc12 [KKR7, 6,8-dichloro-3-hydroxy-2-phenyl-4H-chromen-4-one]	affected the LNCaP cells	–	–	–	–	–
O=c1cc(-c2ccccc2)oc2cc(Cl)c(Cl)cc12 [KKR21, 6,7-dichloro-2-phenyl-4H-chromen-4-one]	–	≤ 7.4 nM	>>1	reversible competitive inhibition	1.7 nM	1.38 × 10^−6–1.43 × 10^−6 U/mL/h
COc1cc(O)c(C(=O)/C=C/c2ccc(Cl)c(Cl)c2)c(OC)c1 [KKR11, (E)-3-(3,4-dichlorophenyl)-1-(2-hydroxy-4,6-dimethoxyphenyl)prop-2-en-1-one]	–	≤ 7.4 nM	>>1	reversible competitive inhibition	7.4 nM	3 × 10^−6–4 × 10^−6 U/mL/h
